These results are taken from ChEMBL document CHEMBL1141115, “Synthesis of leukotriene B4 antagonists labeled with In-111 or Tc-99m to image infectious and inflammatory foci” (J Med Chem, 2005).

Assay [1] addresses T1, Leukotriene B4 receptor 1 (Homo sapiens, UniProt Q15722). Briefly: Inhibitory concentration against human leukotriene B4 receptor using competing agent [3H]-LTB4 as radioligand in pH 7.2 buffer, for 1 h at 37 degree C; (n=2).
The target in assay [2] is T1, Leukotriene B4 receptor 1. Nature of the assay: Inhibitory concentration against human leukotriene B4 receptor using competing agent [111In]-(17)] as radioligand in pH 7.2 buffer, for 1 hr at 37 degree C; (n=2).
For assay [3], the target named is T1, Leukotriene B4 receptor 1. Nature of the assay: Inhibitory concentration against human leukotriene B4 receptor using competing agent [3H]-LTB4 as radioligand in pH 7.2 buffer, for 1 hr at 37 degree C.
For assay [4], the target named is T1, Leukotriene B4 receptor 1. Nature of the assay: Inhibitory concentration against human leukotriene B4 receptor using competing agent [3H]-LTB4 as radioligand in pH 7.2 buffer upon incubation for 1 hr at 37 degree C; (n=4).

pIC50: −log10 of the molar value.

T1 sequence (Q15722 whole entry): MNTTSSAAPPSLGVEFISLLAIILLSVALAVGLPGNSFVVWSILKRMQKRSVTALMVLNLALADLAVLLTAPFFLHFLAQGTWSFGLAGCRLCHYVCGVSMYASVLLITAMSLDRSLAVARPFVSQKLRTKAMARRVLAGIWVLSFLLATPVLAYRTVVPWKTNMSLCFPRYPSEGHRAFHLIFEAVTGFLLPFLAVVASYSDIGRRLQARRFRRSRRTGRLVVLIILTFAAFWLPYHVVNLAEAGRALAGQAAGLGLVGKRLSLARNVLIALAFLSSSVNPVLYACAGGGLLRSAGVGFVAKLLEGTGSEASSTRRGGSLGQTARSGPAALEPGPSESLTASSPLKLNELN

As for `CC(C)(CCCCOc1cc(-c2ccccc2)cc(-c2ccccc2)n1)c1nnnn1CCCCC(=O)NCCCOCCOCCOCCCNC(=O)[C@H](CS(=O)(=O)O)NC(=O)[C@H](CS(=O)(=O)O)NC(=O)[C@H](CS(=O)(=O)O)NC(=O)[C@H](CS(=O)(=O)O)NC(=O)CC[C@H](NC(=O)CN(CCN(CCN(CC(=O)O)CC(=O)O)CC(=O)O)CC(=O)O)C(=O)N[C@@H](CS(=O)(=O)O)C(=O)N[C@@H](CS(=O)(=O)O)C(=O)N[C@@H](CS(=O)(=O)O)C(=O)N[C@@H](CS(=O)(=O)O)C(=O)NCCCOCCOCCOCCCNC(=O)CCCCn1nnnc1C(C)(C)CCCCOc1cc(-c2ccccc2)cc(-c2ccccc2)n1`, the pIC50 in assay [1] is 7.27; in assay [2] it was 7.52.

`CC(C)(CCCCOc1cc(-c2ccccc2)cc(-c2ccccc2)n1)c1nnn[nH]1` gave a negative logarithm of the IC50 (pIC50) in assay [3] of 7.70.

Take `CC(C)(CCCCOc1cc(-c2ccccc2)cc(-c2ccccc2)n1)c1nnnn1CCCCC(=O)NCCCOCCOCCOCCCNC(=O)[C@H](CS(=O)(=O)O)NC(=O)[C@H](CS(=O)(=O)O)NC(=O)[C@H](CS(=O)(=O)O)NC(=O)[C@H](CS(=O)(=O)O)NC(=O)CC[C@H](N)C(=O)N[C@@H](CS(=O)(=O)O)C(=O)N[C@@H](CS(=O)(=O)O)C(=O)N[C@@H](CS(=O)(=O)O)C(=O)N[C@@H](CS(=O)(=O)O)C(=O)NCCCOCCOCCOCCCNC(=O)CCCCn1nnnc1C(C)(C)CCCCOc1cc(-c2ccccc2)cc(-c2ccccc2)n1`: the pIC50 in assay [1] was 8.10.

For the compound `CC(C)(CCCCOc1cc(-c2ccccc2)cc(-c2ccccc2)n1)c1nnnn1CCCCC(=O)NCCCOCCOCCOCCCNC(=O)[C@H](CS(=O)(=O)O)NC(=O)[C@H](CS(=O)(=O)O)NC(=O)[C@H](CS(=O)(=O)O)NC(=O)[C@H](CS(=O)(=O)O)NC(=O)CC[C@H](NC(=O)c1ccc(N/N=C/c2ccccc2)nc1)C(=O)N[C@@H](CS(=O)(=O)O)C(=O)N[C@@H](CS(=O)(=O)O)C(=O)N[C@@H](CS(=O)(=O)O)C(=O)N[C@@H](CS(=O)(=O)O)C(=O)NCCCOCCOCCOCCCNC(=O)CCCCn1nnnc1C(C)(C)CCCCOc1cc(-c2ccccc2)cc(-c2ccccc2)n1`, in assay [2], the pIC50 was 6.64.

On to `CC(C)(CCCCOc1cc(-c2ccccc2)cc(-c2ccccc2)n1)c1nnnn1CCCCC(=O)NCCCOCCOCCOCCCNC(=O)[C@H](CS(=O)(=O)O)NC(=O)[C@H](CS(=O)(=O)O)NC(=O)[C@H](CS(=O)(=O)O)NC(=O)[C@H](CS(=O)(=O)O)NC(=O)c1ccc(N/N=C/c2ccccc2)nc1`, for which the pIC50 in assay [2] is 7.80.

As for `CC(C)(CCCCOc1cc(-c2ccccc2)cc(-c2ccccc2)n1)c1nnnn1CCCCC(=O)NCCCOCCOCCOCCCNC(=O)c1ccc(N/N=C/c2ccccc2S(=O)(=O)O)nc1`, the pIC50 is 7.35 in assay [4] and 7.36 in assay [2].
